{"source": "paper PMC11547576", "about": "“Identification of a New Promising BAG3 Modulator Featuring the Imidazopyridine Scaffold” (Molecules, 2024)", "key": {"[1]": {"tested_on": "HeLa cells", "assay": "Cell cycle and hypodiploid nuclei analysis by PI staining flow cytometry", "format": "cell-based, human", "conditions": "72 h, all tested concentrations (50, 30, 20 µM)", "description": "Given BAG3’s well-documented anti-apoptotic role, annexin V-FITC/PI staining was performed to evaluate the effects of compound 10 on cell apoptosis. […] Specifically, at 50 µM, 81.0 ± 3.89% of the cells were apoptotic (p < 0.001 vs. Ctrl); at 30 µM, 70.5 ± 4.56% were apoptotic (p < 0.01 vs. Ctrl); and at 20 µM, 51.5 ± 2.23% were apoptotic (p < 0.05 vs. Ctrl) (Figure 3A,B).\nHypodiploid nuclei were analyzed using PI staining by flow cytometry. HeLa cells (1 × 10^5 cells/well) were grown in 12-well plates and allowed to adhere for 24 h. Subsequently, the medium was replaced with fresh medium, and the cells were treated for 72 h with compound 10 at concentrations of 20, 30, and 50 µM, 0.1% (v/v) DMSO (negative control), and 10% (v/v) DMSO (positive control). Following treatment, the culture medium was replaced, and the cells were washed twice with PBS. The cells were then suspended in […] of a solution containing 50 mg/L PI, 0.1% (w/v) sodium citrate, and 0.1% Triton X-100. […] After incubation at 4 °C for 30 min in the dark, cell nuclei were analyzed using a Becton Dickinson FACS flow cytometer (Franklin Lakes, NJ, USA) with the Cell Quest program, and the DNA content of the nuclei was recorded. Cellular debris was excluded from the analysis by increasing the forward scatter threshold, and the percentages of cells in the hypodiploid region (sub-G0/G1), G1, S, and G2 regions were calculated. […]"}, "[2]": {"target": "T1, BAG3 full-length (Homo sapiens, UniProt O95817)", "T1 construct": "both the full-length BAG3 protein and its BAG domain; purchased Novus Biologicals (Littleton, CO, USA)", "T1 sequence (O95817 whole entry, the tested form may be a part)": "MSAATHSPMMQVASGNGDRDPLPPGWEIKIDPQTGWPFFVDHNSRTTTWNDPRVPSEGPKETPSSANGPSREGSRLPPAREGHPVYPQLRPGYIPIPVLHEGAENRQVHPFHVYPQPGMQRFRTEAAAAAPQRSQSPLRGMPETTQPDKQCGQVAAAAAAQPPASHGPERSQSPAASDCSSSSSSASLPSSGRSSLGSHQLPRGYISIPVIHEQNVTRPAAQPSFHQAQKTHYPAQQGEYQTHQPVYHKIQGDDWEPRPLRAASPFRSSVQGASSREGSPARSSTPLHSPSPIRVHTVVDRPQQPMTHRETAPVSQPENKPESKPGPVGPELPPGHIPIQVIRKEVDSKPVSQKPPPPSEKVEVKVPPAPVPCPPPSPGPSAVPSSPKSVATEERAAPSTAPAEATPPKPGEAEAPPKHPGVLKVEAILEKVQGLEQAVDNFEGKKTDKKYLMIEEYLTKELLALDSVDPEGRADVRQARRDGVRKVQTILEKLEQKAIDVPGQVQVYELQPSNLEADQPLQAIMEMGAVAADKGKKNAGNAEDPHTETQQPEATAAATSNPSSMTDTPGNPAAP", "assay": "SPR assay on BAG3 full-length protein", "conditions": "Biacore T200, 0 to 100 µM, 25 °C, 1:1 interaction model, n.b. = no binding, read-out: BAG3 FULL KD (µM) ± SD", "description": "In this study, we employed SPR experiments to evaluate the interactions between synthesized compounds (1–14) and both the full-length BAG3 protein and its BAG domain. Only the compounds that successfully bound to the full-length BAG3 protein were tested for their interaction with the BAG domain. Protein immobilization was achieved using the amide coupling method, and the compounds were tested at ten different concentrations, ranging from 0 to 100 µM. A known binder of BAG3-BD, LK4 ((Z)-ethyl 2-(5-(3,4-dihydroxybenzylidene)-2,4-dioxothiazolidin-3yl)acetate), was used as a positive control. […] Compound 14 also bound the target but with slightly higher KD values, still within the micromolar range. The three identified compounds were further investigated to understand whether this binding induced an effect on BAG3 protein functions. The KD values reported in Table 1 for the known inhibitor LK4 differ from those in previous studies due to the use of a newer-generation instrument for the SPR experiments. The earlier experiments utilized the Biacore 3000, whereas the current study employed the Biacore T200. While ligand binding was confirmed in both sets of experiments, the slightly different KD values are attributed to the enhanced sensitivity of the Biacore T200.\nRecombinant human BAG3 protein (Bcl2-associated athanogene 3) was sourced from Novus Biologicals (Littleton, CO, USA), while the BAG3 domain (BAG3-BD) was procured from ARETA International S.r.l. (Gerenzano, Italy). We utilized (Z)-ethyl 2-(5-(3,4-dihydroxybenzylidene)-2,4-dioxothiazolidin-3-yl)acetate (LK4), a known BAG3 inhibitor previously identified by our group. Surface Plasmon Resonance (SPR) spectroscopy was employed to assess the affinity of synthesized molecules for BAG3 and BAG-BD using a Biacore T200 optical biosensor equipped with CM5 sensor chips (Cytiva, Marlborough, MA, USA). BAG3 and BAG-BD were immobilized on the CM5 sensor chip using standard amine-coupling protocols. BAG3 protein (0.067 μg/μL in 10 mM CH3COONa, pH 4.5) was immobilized at a flow rate of 10 μL/min, resulting in a density of 14 kRU. The BAG3 domain (0.38 μg/μL in 10 mM CH3COONa, pH 4.5) was immobilized under similar conditions, achieving a density of 4 kRU. For the experiments, BAG3 and BAG-BD surfaces, along with an unmodified reference surface, were prepared for simultaneous analyses.\nCompounds 1–14 and LK4 were dissolved to 10 mM in 100% DMSO and then diluted 1:20 (v/v) in PBS-P buffer (0.2 M phosphate buffer, 27 mM KCl, 1.37 M NaCl, 0.5% surfactant P20) to achieve a final DMSO concentration of 5.0%. These compounds were injected in a concentration series (1:2 dilution, 10 different concentrations) ranging from 0 to 100 μM, prepared in 96-well plates. SPR experiments were conducted at 25 °C with a flow rate of 20 μL/min, featuring 90 s of association and 400 s of dissociation monitoring. Changes in mass, reflected as resonance units (RU), were recorded to determine binding responses. KD values were calculated using Biaevaluation software 3.2 by globally fitting the double-referenced association and dissociation data to a 1:1 interaction model. See Supplementary Materials for all the sensorgrams (Figures S43–S50)."}}}
{"smiles": "CC(C)Nc1c(-c2ccccc2Br)nc2ccc(Cl)cn12", "note": "[Compound 10, 2-(2-bromophenyl)-6-chloro-N-isopropylimidazo[1,2-a]pyridin-3-amine]", "values": [{"measurement": "cell cycle arrest", "setting": "[1]", "value": "consistent and significant cell cycle arrest"}, {"measurement": "hypodiploid nuclei", "setting": "[1]", "value": "increase in hypodiploid nuclei"}, {"measurement": "Kd", "setting": "[2]", "value": "33.5 ± 0.21", "unit": "µM"}]}
